Measurements reported in US6455284B1, “Metabolically engineered E. coli for enhanced production of oxaloacetate-derived biochemicals” (The University of Georgia Research Foundation, Inc., priority 1998, dated 2002).

How the values were obtained:
[1] = biological target: R. etli pyruvate carboxylase (Rhizobium etli, UniProt Q2K340); assay: Pyruvate carboxylase (PC) coupled enzyme assay (Payne and Morris) with E. coli cell extracts; format: biochemical; details: for effect of nicotinamide nucleotides on pyruvate carboxylase activity: cell-free crude extract from MG1655 pTrc99A-pyc, FIG. 9
Method: Pyruvate carboxylase (PC) enzyme assay. For pyruvate carboxylase activity measurements, 100 mL of mid-log phase culture was harvested by centrifugation at 7,000×g for 15 minutes at 4° C. and washed with 10 mL of 100 mM Tris-Cl (pH 8.0). The cells were then resuspended in 4 mL of 100 mM Tris-Cl (pH 8.0) and subsequently subjected to cell disruption by sonication. The cell debris was removed by centrifugation at 20,000×g for 15 minutes at 4° C. The pyruvate carboxylase activity was measured by the method of Payne and Morris (J. Gen. Microbiol., 59, 97-101 (1969)). In this assay the oxaloacetate produced by pyruvate carboxylase is converted to citrate by the addition of citrate synthase in the presence of acetyl CoA and 5,5-dithio-bis(2-nitro-benzoate) (DTNB) (Aldrich Chemical Co.); the homotetramer pyruvate carboxylase enzyme from R. etli requires acetyl coenzyme A for activation. The rate of increase in absorbence at 412 nm due to the presence of CoA-dependent formation of the 5-thio-2-nitrobenzoate was monitored, first after the addition of pyruvate and then after the addition of ATP. The difference between these two rates was taken as the ATP-dependent pyruvate carboxylase activity. The concentration of reaction components per milliliter of mixture was as follows: 100 mM Tris-Cl (pH 8.0), 5 mM MgCl2.H2O, 50 mM Na HCO3, 0.1 mM acetyl CoA, 0.25 mM DTNB, and 5 units (U) of citrate synthase. Pyruvate, ATP, ADP, or aspartate, were added as specified in the Results section, below. The reaction was started by adding 50 μl of cell extract. One unit of pyruvate carboxylase activity corresponds to the formation of 1 μmol of 5-thio-2-nitrobenzoate per mg of protein per minute. All enzyme assays were performed in triplicate and a standard error of less then 10% was observed. The total protein in the cell extracts was determined by the Lowry method (O. Lowry et al., J. Biol. Chem., 193, 265-275 (1951)).
R. etli pyruvate carboxylase can convert pyruvate to oxaloacetate in E. coli. To confirm that the expressed pyruvate carboxylase protein was enzymatically active in E. coli, the coupled enzyme assay developed by Payne and Morris was employed to assess pyruvate carboxylase activity (J. Payne et al., J. Gen. Microbiol., 59, 97-101 (1969)). Cell extracts containing the induced pUC18-pyc construct (MG1655 pUC18-pyc) were tested for pyruvate carboxylase activity using varying amounts of pyruvate, and compared to controls containing the pUC18 construct (MG1655 pUC18). ATP was added at a final concentration of 5 mM to the reaction mixture and pyruvate carboxylase activity was determined in the presence of increasing amounts of pyruvate. […] This value is in excellent agreement with other pyruvate carboxylase enzymes that have been studied (H. Feir et al., Can. J. Biochem., 47, 698-710 (1969); H. Modak et al., Microbiol., 141, 2619-2628 (1995); M. Scrutton et al., Arch. Biochem. Biophys., 164, 641-654 (1974)).
It is well documented that the α4 pyruvate carboxylase enzymes can be inhibited by either aspartate or adenosine diphosphate (ADP). Aspartate is the first amino acid that is synthesized from oxaloacetate and ADP is liberated when pyruvate carboxylase converts pyruvate to oxaloacetate. Pyruvate carboxylase activity in the presence of each of these inhibitors was evaluated using extracts of MG1655 cells that contained the pUC18-pyc construct. The effect of aspartate was analyzed by adding ATP and pyruvate to the reaction mixture to final concentrations of 5 mM and 6 mM, respectively, then determining pyruvate carboxylase activity in the presence of increasing amounts of aspartate. […] As expected, the pyruvate carboxylase activity was inhibited by aspartate and the specific activity decreased to approximately 43% in the presence of 8 mM aspartate. The effect of ADP was analyzed by adding pyruvate to the reaction mixture to a final concentration of 5 mM, then determining pyruvate carboxylase activity in the presence of increasing amounts of […]. […]

[2] = test system: biotinylated R. etli pyruvate carboxylase expressed in E. coli; assay: Western blot of in vivo biotinylated pyruvate carboxylase in MG1655 pUC18-pyc cells grown with varying biotin; format: cell-based; details: M9 media, 37° C., mid-log
Method: Protein gels and Western blotting. Heat-denatured cell extracts were separated on 10% SDS-PAGE gels as per Altman et. al. (J. Bact., 155, 1130-1137 (1983)) and Western blots were carried out as per Carroll and Gherardini (Infect. Immun., 64, 392-398 (1996)). ALS225 E. coli cells containing either pUC18 or pUC18-pyc were grown to mid-log in rich media at 37° C. both in the presence and absence of IPTG. Because ALS225 contains lacIq1 on the F′, significant induction of the pUC18-pyc construct should not occur unless IPTG is added. Protein extracts were prepared, subjected to SDS PAGE, and Western blotted. Proteins which had been biotinylated in vivo were then detected using the Sigma-Blot protein detection kit (Sigma Chemical Corp., St. Louis, Mo.). The instructions of the manufacturer were followed except that during the development of the western blots the protein biotinylation step was omitted, thus allowing for the detection of only those proteins which had been biotinylated in vivo.
Effects of biotin and biotin holoenzyme synthase on the expression of biotinylated R. etli pyruvate carboxylase in E. coli. […] Proteins which had been biotinylated in vivo were then detected using the Sigma-Blot protein detection kit, as described above. […] The amount of biotinylated pyruvate carboxylase that was present in each sample was quantitated using a Stratagene Eagle Eye II Still Video. […]

[3] = substrate: CC(=O)C(=O)O; assay: Pyruvate carboxylase (PC) coupled enzyme assay (Payne and Morris) with E. coli cell extracts; format: biochemical, R. etli; details: other: MG1655 pUC18-pyc extract; ATP 5 mM; Lineweaver-Burke plot; pH 8.0
Method: Pyruvate carboxylase (PC) enzyme assay. For pyruvate carboxylase activity measurements, 100 mL of mid-log phase culture was harvested by centrifugation at 7,000×g for 15 minutes at 4° C. and washed with 10 mL of 100 mM Tris-Cl (pH 8.0). The cells were then resuspended in 4 mL of 100 mM Tris-Cl (pH 8.0) and subsequently subjected to cell disruption by sonication. The cell debris was removed by centrifugation at 20,000×g for 15 minutes at 4° C. The pyruvate carboxylase activity was measured by the method of Payne and Morris (J. Gen. Microbiol., 59, 97-101 (1969)). […] The rate of increase in absorbence at 412 nm due to the presence of CoA-dependent formation of the 5-thio-2-nitrobenzoate was monitored, first after the addition of pyruvate and then after the addition of ATP. […] The total protein in the cell extracts was determined by the Lowry method (O. Lowry et al., J. Biol. Chem., 193, 265-275 (1951)).
R. etli pyruvate carboxylase can convert pyruvate to oxaloacetate in E. coli. […] ATP was added at a final concentration of 5 mM to the reaction mixture and pyruvate carboxylase activity was determined in the presence of increasing amounts of pyruvate. […]

## N[C@@H](CC(=O)O)C(=O)O [aspartate]
[1]; read-out: pyruvate carboxylase specific activity remaining
  remaining activity at 8000 µM: ~43%

## NC(=O)C1=CN([C@@H]2O[C@H](COP(=O)(O)OP(=O)(O)OC[C@H]3O[C@@H](n4cnc5c(N)ncnc54)[C@H](O)[C@@H]3O)[C@@H](O)[C@H]2O)C=CC1 [NADH, reduced nicotinamide adenine dinucleotide]
[1]
  effect of nicotinamide nucleotides on pyruvate carboxylase activity: inhibited pyruvate carboxylase

## NC(=O)c1ccc[n+]([C@@H]2O[C@H](COP(=O)([O-])OP(=O)(O)OC[C@H]3O[C@@H](n4cnc5c(N)ncnc54)[C@H](O)[C@@H]3O)[C@@H](O)[C@H]2O)c1 [NAD+]
[1]
  effect of nicotinamide nucleotides on pyruvate carboxylase activity: did not

## Nc1ncnc2c1ncn2[C@@H]1O[C@H](COP(=O)(O)OP(=O)(O)OP(=O)(O)O)[C@@H](O)[C@H]1O [ATP]
[1]; MG1655 pUC18-pyc extract, pyruvate 5 mM, Lineweaver-Burke plot, read-out: saturation constant (Km) for expressed pyruvate carboxylase with respect to ATP
  Km: 193 µM

## Nc1ncnc2c1ncn2[C@@H]1O[C@H](COP(=O)(O)OP(=O)(O)O)[C@@H](O)[C@H]1O [ADP, adenosine diphosphate]
[1]
  Ki: 142 µM
[1]; MG1655 pUC18-pyc extract, pyruvate 5 mM, increasing ATP
  mode of inhibition of pyruvate carboxylase: competitive inhibitor of ATP

## NC(=O)c1ccc[n+]([C@@H]2O[C@H](COP(=O)([O-])OP(=O)(O)OC[C@H]3O[C@@H](n4cnc5c(N)ncnc54)[C@H](OP(=O)(O)O)[C@@H]3O)[C@@H](O)[C@H]2O)c1 [NADP+]
[1]
  effect of nicotinamide nucleotides on pyruvate carboxylase activity: did not

## NC(=O)C1=CN([C@@H]2O[C@H](COP(=O)(O)OP(=O)(O)OC[C@H]3O[C@@H](n4cnc5c(N)ncnc54)[C@H](OP(=O)(O)O)[C@@H]3O)[C@@H](O)[C@H]2O)C=CC1 [NADPH]
[1]
  effect of nicotinamide nucleotides on pyruvate carboxylase activity: did not

## O=C(O)CCCC[C@@H]1SC[C@@H]2NC(=O)N[C@@H]21 [biotin]
[2]
  biotin concentration sufficient to biotinylate all of the expressed pyruvate carboxylase: 50 ng/mL

B1: R. etli pyruvate carboxylase (Rhizobium etli CFN 42) (protein)
chain: MPISKILVANRSEIAIRVFRAANELGIKTVAIWAEEDKLALHRFKADESYQVGRGPHLARDLGPIESYLSIDEVIRVAKLSGADAIHPGYGLLSESPEFVDACNKAGIIFIGPKADTMRQLGNKVAARNLAISVGVPVVPATEPLPDDMAEVAKMAAAIGYPVMLKASWGGGGRGMRVIRSEADLAKEVTEAKREAMAAFGKDEVYLEKLVERARHVESQILGDTHGNVVHLFERDCSVQRRNQKVVERAPAPYLSEAQRQELAAYSLKIAGATNYIGAGTVEYLMDADTGKFYFIEVNPRIQVEHTVTEVVTGIDIVKAQIHILDGAAIGTPQSGVPNQEDIRLNGHALQCRVTTEDPEHNFIPDYGRITAYRSASGFGIRLDGGTSYSGAIITRYYDPLLVKVTAWAPNPLEAISRMDRALREFRIRGVATNLTFLEAIIGHPKFRDNSYTTRFIDTTPELFQQVKRQDRATKLLTYLADVTVNGHPEAKDRPKPLENAARPVVPYANGNGVKDGTKQLLDTLGPKKFGEWMRNEKRVLLTDTTMRDGHQSLLATRMRTYDIARIAGTYSHALPNLLSLECWGGATFDVSMRFLTEDPWERLALIREGAPNLLLQMLLRGANGVGYTNYPDNVVKYFVRQAAKGGIDLFRVFDCLNWVENMRVSMDAIAEENKLCEAAICYTGDILNSARPKYDLKYYTNLAVELEKAGAHIIAVKDMAGLLKPAAAKVLFKALREATGLPIHFHTHDTSGIAAATVLAAVEAGVDAVDAAMDALSGNTSQPCLGSIVEALSGSERDPGLDPAWIRRISFYWEAVRNQYAAFESDLKGPASEVYLHEMPGGQFTNLKEQARSLGLETRWHQVAQAYADANQMFGDIVKVTPSSKVVGDMALMMVSQDLTVADVVSPDREVSFPESVVSMLKGDLGQPPSGWPEALQKKALKGEKPYTVRPGSLLKEADLDAERKVIEKKLEREVSDFEFASYLMYPKVFTDFALASDTYGPVSVLPTPAYFYGLADGEELFADIEKGKTLVIVNQAVSATDSQGMVTVFFELNGQPRRIKVPDRAHGATGAAVRRKAEPGNAAHVGAPMPGVISRVFVSSGQAVNAGDVLVSIEAMKMETAIHAEKDGTIAEVLVKAGDQIDAKDLLAVYGG
[3]
  Km: 249 µM
